This note sets out measurements from patent US10179125B2, “Substituted pyridines as bromodomain inhibitors” (Zenith Epigenetics Ltd., priority 2014, dated 2019).

Test [1] concerns the target T1, Brd4 bromodomain 1 (BRD4(1)) (Homo sapiens, UniProt O60885).
T1 construct: made in house; host or cells: E. coli BL21(DE3)
The test can be described thus: Inhibition of tetra-acetylated histone H4 binding to BET bromodomain (HTRF/FRET). As to conditions: His-tagged bromodomain 200 nM, biotinylated tetra-acetylated histone H4 peptide, 2 h room temperature. How it is done:
Proteins were cloned and overexpressed with a N-terminal 6×His tag, then purified by nickel affinity followed by size exclusion chromatography. Briefly, E. coli BL21(DE3) cells were transformed with a recombinant expression vector encoding N-terminally Nickel affinity tagged bromodomains from Brd2, Brd3, Brd4. Cell cultures were incubated at 37° C. with shaking to the appropriate density and induced overnight with IPTG. The supernatant of lysed cells was loaded onto Ni-IDA column for purification, Eluted protein was pooled, concentrated and further purified by size exclusion chromatography. Fractions representing monomeric protein were pooled, concentrated, aliquoted, and frozen at −80° C. for use in subsequent experiments.
Binding of tetra-acetylated histone H4 and BET bromodomains was confirmed by a Homogenous Time Resolved Fluorescence Resonance Energy Transfer (HTRF®) method, N-terminally His-tagged bromodomains (200 nM) and biotinylated tetra-acetylated histone H4 peptide (25-50 nM, Millipore) were incubated in the presence of Europium Cryptate-labeled streptavidin (Cisbio Cat, #610SAKLB) and XL665-labeled monoclonal anti-His antibody (Cisbio Cat.1461HISXLB) in a white 96 well microtiter plate (Greiner). For inhibition assays, serially diluted test compound was added to these reactions in a 0.2% final concentration of DMSO. Duplicate wells were used for each concentration tested. Final buffer concentrations were 30 mM HEPES pH 7.4, 30 mM NaCl, 0.3 mM CHAPS, 20 mM phosphate pH 7.0, 320 mM KF, 0.08% BSA. After a 2 h incubation at room temperature, fluorescence was measured at 665 and 620 nm with a SynergyH4 plate reader (Biotek). The binding inhibitory activity was shown by a decrease in […] relative to 620 nm fluorescence. IC50 values were determined from a dose response curve.

The next test has as its system cMYC. As to the kind of experiment: Inhibition of cMYC expression in MV4-11 cells (real-time PCR). The format is cell-based, Human. As to conditions: Homo sapiens, 3 h, cMYC mRNA, read-out: c-myc activity. As for the experimental part:
MV4-11 cells (CRL-9591) were plated at a density of 2.5×10^4 cells per well in 96 well U-bottom plates and treated with increasing concentrations of test compound or DMSO (0.1%) in IMDM media containing 10% FBS and penicillin/streptomycin, and incubated for 3 h at 37° C. Triplicate wells were used for each concentration. Cells were pelleted by centrifugation and harvested using the mRNA Catcher PLUS kit according to manufacturer's instructions. The eluted mRNA isolated was then used in a one-step quantitative real-time PCR reaction, using components of the RNA UltraSense™ One-Step Kit (Life Technologies) together with Applied Biosystems TaqMan® primer-probes for cMYC and Cyclophilin, Real-time PCR plates were run on a ViiA™7 real time PCR machine (Applied Biosystems), data was analyzed, normalizing the Ct values for cMYC to an internal control, prior to determining the fold expression of each sample, relative to the control.

The next test relates to Human AML MV-4-11 cells. The test can be described thus: Inhibition of cell proliferation in MV4-11 cells (CellTiter Aqueous One). As to conditions: 72 h; for IC50: Homo sapiens. The format is cell-based. As for the experimental part: MV4-11 cells (CRL-9591) were plated at a density of 5×10^4 cells per well in 96 well flat bottom plates and treated with increasing concentrations of test compound or DMSO (0.1%) in IMDM media containing 10% FBS and penicillin/streptomycin. Triplicate wells were used for each concentration and a well containing only media was used as a control. Plates were incubated at 37° C., 5% CO2 for 72 h before adding 20 μL of the CellTiter Aqueous One Solution (Promega) to each well and incubated at 37° C., 5% CO2 for an additional 3-4 h. The absorbance was read at 490 nm in a spectrophotometer and the percentage of cell titer relative to DMSO-treated cells was calculated after correcting for background by subtracting the blank well's signal. IC50 values were calculated using the GraphPad Prism software.

The next test deals with hIL-6. As to the kind of experiment: Inhibition of hIL-6 mRNA transcription in LPS-stimulated U937 cells. In kind it is cell-based, Human. As to conditions: Homo sapiens, U-937, PMA-differentiated U937 cells, 1 h pretreatment, LPS 3 h, read-out: IL-6 activity. As for the experimental part: Human leukemic monocyte lymphoma U937 cells (CRL-1593.2) were plated at a density of 3.2×10^4 cells per well in a 96-well plate in 100 μL RPMI-1640 containing 10% FBS and penicillin/streptomycin, and differentiated into macrophages for 3 days in 60 ng/mL PMA ([…]) at 37° C. in 5% CO2 prior to the addition of compound. The cells were pretreated for 1 h with increasing concentrations of test compound in 0.1% DMSO prior to stimulation with 1 ug/mL lipopolysaccharide from Escherichia coli. Triplicate wells were used for each concentration. The cells were incubated at 37° C., 5% CO2 for 3 h before the cells were harvested. At time of harvest, media was removed and cells were rinsed in 200 μL PBS. Cells were harvested using the mRNA Catcher PLUS kit according to manufacturer's instructions. The eluted mRNA was then used in a one-step quantitative real-time PCR reaction using components of the RNA UltraSense™ One-Step Kit (Life Technologies) together with Applied Biosystems TaqMan® primer-probes for hIL-6 and Cyclophilin. Real-time PCR plates were run on a ViiA™7 real time PCR machine (Applied Biosystems), data was analyzed, normalizing the Ct values for hIL-6 to an internal control, prior to determining the fold expression of each sample, relative to the control.

For the compound `COc1ncc(-c2c(C)noc2C)cc1Nc1cccc(F)c1` [Example 3, 5-(3,5-dimethylisoxazol-4-yl)-N-(3-fluorophenyl)-2-methoxypyridin-3-amine], the IC50 in test [1] is no more than 0.3 µM; with cMYC, 0.3 to 3 µM; in the test with Human AML MV-4-11 cells it was 3 to 30 µM; with hIL-6, 0.3 to 3 µM.
For the compound `COc1ncc(-c2c(C)noc2C)cc1Oc1ccccc1` [Example 4, 4-(6-methoxy-5-phenoxypyridin-3-yl)-3,5-dimethylisoxazole], the IC50 in test [1] is 0.3 to 3 µM; with cMYC, 0.3 to 3 µM; in the test with Human AML MV-4-11 cells, 3 to 30 µM; with hIL-6, 0.3 to 3 µM.
As for `COc1ncc(-c2c(C)noc2C)cc1NC(C)c1ccccc1` (stereo not shown) [Example 5, 5-(3,5-dimethylisoxazol-4-yl)-2-methoxy-N-(1-phenylethyl)pyridin-3-amine], the IC50 (in test [1]; in the test with cMYC; with Human AML MV-4-11 cells; with hIL-6) was 0.3 to 3 µM each time.
Take `COc1ncc(-c2c(C)noc2C)cc1Nc1cccc(C)c1` [Example 7, 5-(3,5-dimethylisoxazol-4-yl)-2-methoxy-N-(m-tolyl)pyridin-3-amine]: the values for the IC50 (in test [1]; with Human AML MV-4-11 cells; in the test on hIL-6) were no more than 0.3 µM, 3 to 30 µM and 0.3 to 3 µM, respectively.
For the compound `COc1cccc(Nc2cc(-c3c(C)noc3C)cnc2OC)c1` [Example 13, 5-(3,5-dimethylisoxazol-4-yl)-2-methoxy-N-(3-methoxyphenyl)pyridin-3-amine], the IC50 is no more than 0.3 µM in test [1], 0.3 to 3 µM in the test with Human AML MV-4-11 cells and 0.3 to 3 µM in the test with hIL-6.
`COc1ncc(-c2c(C)noc2C)cc1Oc1cccnc1` [Example 15, 4-(6-methoxy-5-(pyridin-3-yloxy)pyridin-3-yl)-3,5-dimethylisoxazole]: in test [1], the IC50 lay within 3 to 30 µM.
On to `COc1ncc(-c2c(C)noc2C)cc1NCc1ccc(C(F)(F)F)cc1` [Example 16, 5-(3,5-dimethylisoxazol-4-yl)-2-methoxy-N-(4-(trifluoromethyl)benzyl)pyridin-3-amine], for which the IC50 in test [1] was in the range of 0.3 to 3 µM.
With `COc1ncc(-c2c(C)noc2C)cc1NC(C)c1ccc(Cl)cc1` (stereo not shown) [Example 22, N-(1-(4-chlorophenyl)ethyl)-5-(3,5-dimethylisoxazol-4-yl)-2-methoxypyridin-3-amine], the values for the IC50 (in test [1]; in the test with cMYC; in the test with Human AML MV-4-11 cells) were 0.3 to 3 µM, 3 to 30 µM and 3 to 30 µM, respectively.
`COc1ncc(-c2c(C)noc2C)cc1NCc1ccc(Br)cc1` [Example 23, N-(4-bromobenzyl)-5-(3,5-dimethylisoxazol-4-yl)-2-methoxypyridin-3-amine]: the figures for the IC50 (in test [1]; in the test with cMYC; with Human AML MV-4-11 cells) were 0.3 to 3 µM, 3 to 30 µM and 3 to 30 µM, respectively.
With `Cc1noc(C)c1-c1cnc(OCc2ccccc2)c(NCc2ccccc2)c1` [Example 25, N-benzyl-2-(benzyloxy)-5-(3,5-dimethylisoxazol-4-yl)pyridin-3-amine], the IC50 in test [1] is 0.3 to 3 µM; in the test on Human AML MV-4-11 cells it was 3 to 30 µM.
With `COc1ncc(-c2c(C)noc2C)cc1-c1c(C)noc1C` [Example 34, 4,4′-(2-methoxypyridine-3,5-diyl)bis(3,5-dimethylisoxazole)], the IC50 was no more than 0.3 µM in test [1], 3 to 30 µM in the test on cMYC and 3 to 30 µM with hIL-6.
Regarding `COc1ncc(-c2c(C)noc2C)cc1NCc1ncccn1` [Example 48, 5-(3,5-dimethylisoxazol-4-yl)-2-methoxy-N-(pyrimidin-2-ylmethyl)pyridin-3-amine], the IC50 in test [1] was no more than 0.3 µM; in the test with Human AML MV-4-11 cells, 3 to 30 µM; in the test on hIL-6, 0.3 to 3 µM.
For `COc1ncc(-c2c(C)noc2C)cc1NCc1ncccc1Cl` [Example 49, N-((3-chloropyridin-2-yl)methyl)-5-(3,5-dimethylisoxazol-4-yl)-2-methoxypyridin-3-amine], the IC50 in test [1] was no more than 0.3 µM. In addition, the “Cell Proliferation activity” value with Human AML MV-4-11 cells is “Not Active”.
In the case of `CNc1ncc(-c2c(C)noc2C)cc1Nc1cccnc1C` [Example 69, 5-(3,5-Dimethylisoxazol-4-yl)-N2-methyl-N3-(2-methylpyridin-3-yl)pyridine-2,3-diamine], in test [1], the IC50 fell in the range of 0.3 to 3 µM.
